Assay [1] concerns the target T1, Prothrombin (Homo sapiens, UniProt P00734). The assay can be described thus: Compound was measured for the inhibition of alpha-human thrombin by clotting test.
Assay [2] concerns the target T1, Prothrombin. Kind of assay: Compound was measured for the inhibition of alpha-human thrombin by amidolytic assay.

A word on the Ki: it is a measure of affinity in units of concentration, obtained from inhibition or displacement. As a reminder, the IC50 is the point on the concentration scale where inhibition reaches its midpoint. On Prothrombin [1], `CC(=O)N[C@H](CC1CCCCC1)C(=O)N1CCC[C@H]1C(=O)N[C@@H](CCCN=C(N)N)C(=O)Cc1ccccc1` showed a Ki of 185 nM. The compound further registered an IC50 at Prothrombin [2] of 630 nM.
The matching figures for `CC(=O)N[C@H](CC1CCCCC1)C(=O)N1CCC[C@H]1C(=O)N[C@@H](CCCN=C(N)N)C(=O)C[n+]1ccccc1`: 21 nM and 180 nM.
In turn, `N=C(N)NCCC[C@H](NC(=O)[C@@H]1CCCN1C(=O)[C@H](N)CC1CCCCC1)C(=O)C[n+]1ccccc1` displayed a Ki on Prothrombin [1] of 0.19 nM. 1.7 nM corresponded to half-maximal inhibition against Prothrombin [2] (IC50).
The corresponding values for `CC(=O)[C@H](CCCN=C(N)N)NC(=O)[C@@H]1CCCN1C(=O)[C@H](N)CC1CCCCC1` are 60 nM and 410 nM.
`CC(=O)N[C@H](Cc1ccccc1)C(=O)N1CCC[C@H]1C(=O)N[C@@H](CCCNC(=N)N)C(=O)C[n+]1ccccc1` yielded a Ki on Prothrombin [1] of 310 nM. Further, on Prothrombin [2], the IC50 was found to be 2700 nM.
The matching figures for `N=C(N)NCCC[C@H](NC(=O)[C@@H]1CCCN1C(=O)[C@H](N)CC1CCCCC1)C(=O)Cc1ccccc1`: 1.25 nM and 9.9 nM.

For the origin of these results see ChEMBL document CHEMBL1150986, “Tripeptidyl pyridinium methyl ketones as potent active site inhibitors of thrombin” (Bioorg Med Chem Lett, 1996).
